US8962576B2, “Compositions and method for improving endothelial function and cardiovascular health” (Natreon, Inc., priority 2012, dated 2015)
Where “and” joins values, the source holds several entries; their conditions need not be identical. Equal entries are not always repeated.

Assays:
Format in all cases: in vivo, human
Type 2 Diabetic Subjects [1] = experiment: Other cardiovascular pharmacodynamic parameters (AIx, SEVR, ABI, PWV, CO, SVR), study (c); conditions: CAPROS 250 mg twice daily, Atorvastatin 10 mg daily, n = 20
Experimental: The augmentation index (AIx, defined as augmented pressure divided by pulse pressure and expressed as a percentage) is thus a composite measure of the magnitude of wave reflections and arterial stiffness, which affects timing of wave reflections. Because the augmentation index is influenced by changes in heart rate (HR), it is also accordingly corrected (AIx@75). The augmentation index was measured by using a validated, commercially available system (SphygmoCor; AtCor Medical, Sydney, Australia) that employs the principle of applanation tonometry and appropriate acquisition and analysis software for noninvasive recording and analysis of the arterial pulse. […] Waveforms of radial pressure were calibrated according to sphygmomanometric systolic and diastolic pressure measured in the brachial artery because there is practically negligible pressure pulse amplification between the brachial and the radial artery.
The subendocardial viability index, an indicator of myocardial workload and perfusion (O2 supply vs. demand) was calculated as the ratio of the integral of diastolic pressure and time to the integral of systolic pressure and time.
Brachial-ankle pulse wave velocity (baPWV) is also used to evaluate arterial stiffness. Pulse wave velocity is the speed at which the blood pressure pulse travels from the heart to the peripheral artery after blood rushes out during contraction. It is mainly used to evaluate stiffness of the artery wall. Pulse wave velocity increases with stiffness of the arteries. The PTT (Pulse Transit Time) of each segment is calculated from the waveform taken from each sensor. Pulse wave velocity is defined in Equation (1): […]
Brachial Ankle Pulse Wave Velocity (baPWV), Ankle Brachial Index (ABI) and Blood Pressure (BP) were measured using an automatic waveform analyzer (model BP-203 RPE; Colin Medical Technology, Komaki, Japan). Measurements were taken with patients lying in a supine position after 5 minutes of rest in that position. Occlusion and monitoring cuffs were placed snugly around both sites of the upper and lower extremities of patients. Pressure waveforms of the brachial and tibial arteries were then recorded simultaneously by an oscillometric method. Measurement of right and left baPWV was obtained for an average of 10 seconds. The average of left and right baPWV will be used for analysis.
Recording of cardiac output (CO) was performed using L&T Nivomon monitor (Larsen & Toubro Ltd., Mumbai, India). Noninvasive continuous cardiac output monitor with peripheral blood flow measurement option. This equipment is very useful and versatile. It calculates many cardiac parameters directly including cardiac output. It works on the features of impedance plethysmography principle and has tetrapolar configuration. The advantage is that this equipment directly calculates the cardiac output along with other parameters using the pulse wave.
(§1) After screening, all the eligible subjects were randomized to receive either one of the four treatments for a duration of 12 weeks, as follows.
The clinical measurements and pharmacodynamic tests were performed as described above in studies (a) or (b), unless otherwise stated.

Type 2 Diabetic Subjects [2] = experiment: Biomarkers of oxidative stress (NO, MDA, Glutathione), study (a); conditions: Sensoril or Capros 250 mg twice daily, Atorvastatin 10 mg at night; for Glutathione / MDA / NO: n = 10
Experimental: […]. (April 2004) 36(2): 76-79. Glutathione levels were determined as described in G. L. Ellman, Arch. Biochem. Biophys. (1959) 82: 70-77 (original determination). Nitric oxide levels were estimated spectrophotometrically as described in Miranda, et al., “A Rapid, Simple Spectrophotometric Method for Simultaneous Detection of Nitrate and Nitrite,” NITRIC OXIDE: Biology and Chemistry (2001) Vol. 5, No. 1, pp. 62-71.

platelet aggregation = experiment: Platelet aggregation with ADP, dual channel aggregometer, study (a)
Experimental: Evaluation of Platelet Aggregation.
The platelet aggregation was determined by the following procedure using Wheecon chronologue dual channel platelet aggregometer (Wheecon Instruments Pvt. Ltd., Chemai, Tamilnadu, India). The percentage decrease in platelet aggregation was recorded at baseline and 3 hours post treatment. Approximately 9 ml of blood sample was collected in a 10 ml plastic test tube containing 1 ml of 3.8% Sodium Citrate from the cubital vein of the subject at baseline and after 3 hours post treatment in all the groups. The test was performed immediately within a time period of one and half hours from collection. The samples were centrifuged at 800 rpm for 15 minutes to obtain a platelet-rich plasma. A portion of the same sample was centrifuged at 2500 rpm for 10 minutes so as to get a platelet-poor plasma sample. The aggregometer was switched about 30 minutes before the test to allow the heating block to warm up to 37° C. Then the test was performed in duplicate by taking 0.5 ml of platelet-rich plasma using 5 μl of adenosine di-phosphate (ADP) solution (2 μgm/ml) in cuvettes containing magnetic stir bars. The speed of stir bars were adjusted at 1200 rpm so as to facilitate the aggregation of the platelets. The platelet-poor plasma sample was kept as reference. The readings were recorded at baseline and after treatment with ADP. The percentage aggregation at baseline and the percentage inhibition of platelet aggregation on post treatment with all the four treatments was calculated.

Type 2 Diabetic Subjects [3] = experiment: Lipid profile, study (c); conditions: CAPROS 250 mg twice daily, Atorvastatin 10 mg daily, n = 20
Description: as §1
All the subjects had undergone complete physical examination, safety lab evaluations at baseline and at the end of the treatment. Samples were collected after an overnight fast of 12 hrs after the last dose of medication for determination of haemoglobin, HbA1c, blood urea and serum creatinine, liver function test, and lipid profile (Total cholesterol (TC), High density lipoprotein cholesterol (HDL-C), low density lipoprotein cholesterol (LDL-C)), and results obtained using appropriate standard techniques.

SMILES: CC(C)c1c(C(=O)Nc2ccccc2)c(-c2ccccc2)c(-c2ccc(F)cc2)n1CC[C@@H](O)C[C@@H](O)CC(=O)O [Atorvastatin]
- Absolute change in ABI (Type 2 Diabetic Subjects [1]; 12 weeks): 0.08 ± 0.06
- Absolute change in AIx (Type 2 Diabetic Subjects [1]; 12 weeks): −12.14 ± 5.44%
- Absolute change in CO (Type 2 Diabetic Subjects [1]; 12 weeks): 0.84 ± 0.43 lt/min
- Absolute change in PWV (Type 2 Diabetic Subjects [1]; 12 weeks): −175.5 ± 110.82 cm/s
- Absolute change in SEVR (Type 2 Diabetic Subjects [1]; 12 weeks): 11.09 ± 6.51%
- Absolute change in SVR (Type 2 Diabetic Subjects [1]; 12 weeks): −182.3 ± 109.61 dyne · sec/cm^5
- ABI (Type 2 Diabetic Subjects [1]; Post TT, 12 weeks): 1.10 ± 0.04$
- AIx (Type 2 Diabetic Subjects [1]; Post TT, 12 weeks): 123.4 ± 13.4$ %
- CO (Type 2 Diabetic Subjects [1]; Post TT, 12 weeks): 5.15 ± 0.47$ lt/min
- PWV (Type 2 Diabetic Subjects [1]; Post TT, 12 weeks): 1346 ± 147.6$ cm/s
- SEVR (Type 2 Diabetic Subjects [1]; Post TT, 12 weeks): 146.5 ± 16.09$ %
- SVR (Systemic Vascular Resistance) (Type 2 Diabetic Subjects [1]; Post TT, 12 weeks): 1336.95 ± 251.3$ dyne · sec/cm^5
- ABI (Type 2 Diabetic Subjects [1]; Pre TT): 1.02 ± 0.07
- AIx (Type 2 Diabetic Subjects [1]; Pre TT): 135.5 ± 14.71%
- CO (Type 2 Diabetic Subjects [1]; Pre TT): 4.13 ± 0.65 lt/min
- PWV (Type 2 Diabetic Subjects [1]; Pre TT): 1522 ± 127.7 cm/s
- SEVR (Type 2 Diabetic Subjects [1]; Pre TT): 135.4 ± 19.11%
- SVR (Systemic Vascular Resistance) (Type 2 Diabetic Subjects [1]; Pre TT): 1519.25 ± 296.3 dyne · sec/cm^5
- Glutathione (Type 2 Diabetic Subjects [2]; Post treatment, 12 weeks): 721.6 ± 116.9 µmol/L
- MDA (Type 2 Diabetic Subjects [2]; Post treatment, 12 weeks): 2.13 ± 0.48 nmol/mL
- NO (Type 2 Diabetic Subjects [2]; Post treatment, 12 weeks): 68.89 ± 11.54 µmol/L
- Glutathione (Type 2 Diabetic Subjects [2]; Pre treatment): 530.8 ± 168.4 µmol/L
- MDA (Type 2 Diabetic Subjects [2]; Pre treatment): 3.48 ± 0.73 nmol/mL
- NO (Type 2 Diabetic Subjects [2]; Pre treatment): 42.24 ± 6.771 µmol/L
- Mean % change in Glutathione (Type 2 Diabetic Subjects [2]; after 12 weeks of treatment): 51.77% and 51.77 ± 62.72%
- Mean % change in MDA (Type 2 Diabetic Subjects [2]; after 12 weeks of treatment): −38.05% and −38.05 ± 10.43%
- Mean % change in NO (Type 2 Diabetic Subjects [2]; after 12 weeks of treatment): 64.71% and 64.71 ± 27.25%
- % Inhibition of Platelet Aggregation (platelet aggregation; 3 hours post treatment, ADP, n = 10): 7.11%
- platelet aggregation (platelet aggregation; Post treatment, 3 hours post treatment, ADP, n = 10): 62.00±12.81%
- platelet aggregation (platelet aggregation; Pre treatment (baseline), ADP, n = 10): 66.50±11.00%
- reduction of ADP induced platelet aggregation (platelet aggregation; earlier study, results in Table V): did not produce significant reduction
- Absolute change in HDL-C (Type 2 Diabetic Subjects [3]; 12 weeks): 7.52 ± 7.00 mg/dL
- Absolute change in LDL-C (Type 2 Diabetic Subjects [3]; 12 weeks): -47.48 ± 24.19 mg/dL
- Absolute change in Total Cholesterol (Type 2 Diabetic Subjects [3]; 12 weeks): -48.11 ± 36.87 mg/dL
- Absolute change in Triglycerides (Type 2 Diabetic Subjects [3]; 12 weeks): -48.54 ± 50.09 mg/dL
- Absolute change in VLDL-C (Type 2 Diabetic Subjects [3]; 12 weeks): -5.30 ± 4.70 mg/dL
- Mean percentage change in HDL-C (Type 2 Diabetic Subjects [3]; 12 weeks): 21.16 ± 20.49%
- Mean percentage change in LDL-C (Type 2 Diabetic Subjects [3]; 12 weeks): −35.00 ± 14.34%
- Mean percentage change in Total Cholesterol (Type 2 Diabetic Subjects [3]; 12 weeks): −24.68 ± 14.38%
- Mean percentage change in Triglycerides (Type 2 Diabetic Subjects [3]; 12 weeks): −25.02 ± 25.34%
- Mean percentage change in VLDL-C (Type 2 Diabetic Subjects [3]; 12 weeks): −18.24 ± 17.10%
- HDL-C (Type 2 Diabetic Subjects [3]; Post TT, 12 weeks): 47.95 ± 5.34 mg/dL
- LDL-C (Type 2 Diabetic Subjects [3]; Post TT, 12 weeks): 78.50 ± 16.71 mg/dL
- Total Cholesterol (Type 2 Diabetic Subjects [3]; Post TT, 12 weeks): 135.6 ± 26.94 mg/dL
- Triglycerides (Type 2 Diabetic Subjects [3]; Post TT, 12 weeks): 106.5 ± 30.79 mg/dL
- VLDL-C (Type 2 Diabetic Subjects [3]; Post TT, 12 weeks): 19.90 ± 3.64 mg/dL
- HDL-C (Type 2 Diabetic Subjects [3]; Pre TT): 40.44 ± 6.76 mg/dL
- LDL-C (Type 2 Diabetic Subjects [3]; Pre TT): 126.00 ± 34.90 mg/dL
- Total Cholesterol (Type 2 Diabetic Subjects [3]; Pre TT): 183.7 ± 37.41 mg/dL
- Triglycerides (Type 2 Diabetic Subjects [3]; Pre TT): 155.0 ± 56.51 mg/dL
- VLDL-C (Type 2 Diabetic Subjects [3]; Pre TT): 25.20 ± 6.57 mg/dL
